From US6767907B2, “4-aryl-1-(indanmethyl dihydrobenzofuranmethyl or dihydrobenzothiophenemethyl) piperidines tetrahydropyridines or piperazines” (H. Lundbeck A/S, priority 1994, dated 2004) come the findings set out here.

A word on the melting point: it is the temperature of the solid-liquid transition. One may read the IC50 as the concentration at which inhibition is half-maximal. A word on the inhibition: it is the change of the read-out against control, counted positive when it falls.

One data set deals with T1, 5-HT1A receptors (Rattus norvegicus, UniProt P19327).
T1 construct: 5-HT1A receptors in membranes from rat brain minus cerebellum; from tissue; host or cells: rat brain minus cerebellum, membranes
T1 sequence (P19327 1-422): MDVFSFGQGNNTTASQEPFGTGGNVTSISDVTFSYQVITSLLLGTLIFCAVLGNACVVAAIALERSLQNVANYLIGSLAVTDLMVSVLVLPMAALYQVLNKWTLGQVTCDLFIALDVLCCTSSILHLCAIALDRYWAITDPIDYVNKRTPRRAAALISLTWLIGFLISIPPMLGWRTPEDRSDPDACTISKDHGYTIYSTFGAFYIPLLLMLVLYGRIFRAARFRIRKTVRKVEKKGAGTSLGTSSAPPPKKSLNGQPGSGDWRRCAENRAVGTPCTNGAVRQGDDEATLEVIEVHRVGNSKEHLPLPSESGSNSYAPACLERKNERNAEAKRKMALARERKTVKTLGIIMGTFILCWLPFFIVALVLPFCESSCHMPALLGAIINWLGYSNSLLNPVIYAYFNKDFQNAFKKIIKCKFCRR
Put plainly: Inhibition of 3H-8-OH-DPAT binding to serotonin 5-HT1A receptors in rat brain in vitro. As to conditions: 3H-8-OH-DPAT 1 nM; for IC50: membranes from rat brain minus cerebellum, read-out: 3H 8-OH DPAT (5-HT1A) binding, IC50. On the procedure: By this method the inhibition by drugs of the binding of the 5-HT1A agonist ^3H-8-OH-DPAT (1 nM) to 5-HT1A receptors in membranes from rat brain minus cerebellum is determined in vitro . Accordingly, this is a test for affinity for the 5-HT1A receptor. The test is performed as described by Hyttel et al., Drug. Dev. Res., 1988, 15, 389-404.

Another data set concerns the target T2, 5-HT2A receptors (Rattus norvegicus, UniProt P14842).
T2 construct: 5-HT2A receptors in membranes from rat is determined in vitro; from tissue; host or cells: rat cortex membranes
Kind of data set: Inhibition of 3H-Ketanserin binding to 5-HT2 receptors in rat cortex in vitro. On the procedure: Inhibition of ^3H-Ketanserin Binding to 5-HT2 Receptors in Rat Cortex in vitro.
By this method the inhibition by drugs of the binding of ^3H-Ketanserin (0.5 nM) to 5-HT2A receptors in membranes from rat is determined in vitro .

Setting [1] is: 3H-Ketanserin 0.5 nM, membranes from rat cortex, read-out: 3H Ketanserin (5-HT2A) binding, IC50.

Structures can show the parent of a compound that is named as a salt. Where two headings read alike, the source gives them in different places. Bounds are passed on as bounds.

T2 sequence (P14842 whole entry): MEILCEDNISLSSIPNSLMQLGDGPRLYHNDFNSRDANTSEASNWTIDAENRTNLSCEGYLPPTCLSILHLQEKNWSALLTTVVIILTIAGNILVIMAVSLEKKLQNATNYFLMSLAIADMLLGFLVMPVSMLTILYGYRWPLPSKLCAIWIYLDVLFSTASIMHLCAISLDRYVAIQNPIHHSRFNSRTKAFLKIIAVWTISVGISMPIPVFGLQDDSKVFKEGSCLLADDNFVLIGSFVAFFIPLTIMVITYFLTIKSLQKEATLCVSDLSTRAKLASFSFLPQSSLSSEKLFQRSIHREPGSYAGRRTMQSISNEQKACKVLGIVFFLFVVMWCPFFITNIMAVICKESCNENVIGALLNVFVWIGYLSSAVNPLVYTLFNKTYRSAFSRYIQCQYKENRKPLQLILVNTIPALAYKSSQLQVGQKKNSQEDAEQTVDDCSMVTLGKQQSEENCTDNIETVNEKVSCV

As to `CC(=O)Nc1ccc2c(c1)C(CN1CCC(n3ccc4cc(Cl)ccc43)CC1)CC2` (centres unmarked), the melting point lay within 189 to 191 °C.

Consider `Nc1ccc2c(c1)C(CN1CC=C(c3ccc(F)cc3)CC1)CC2` (centres unmarked), for which the melting point lay within 78 to 84 °C.

For the compound `CCOC(=O)Nc1ccc2c(c1)C(CN1CCC(c3ccc(F)cc3)CC1)CC2` (centres unmarked) (as salt: fumarate) [Compound 4l, 1-(6-Ethyloxycarbonylaminoindan-1-ylmethyl)-4-(4-fluorophenyl)piperidine], the melting point lay within 191 to 193 °C.

`CNC(=S)Nc1ccc2c(c1)C(CN1CCC(c3ccc(F)cc3)CC1)CC2` (centres unmarked) (as salt: fumarate) [Compound 5c, 4-(4-Fluorophenyl)-1-(6-methylaminothiocarbonylaminoindan-1-ylmethyl)piperidine] showed a melting point of 181 to 183 °C.

As to `Nc1ccc2c(c1)C(CN1CCC(c3ccc(F)cc3)CC1)CC2` (centres unmarked) (as salt: hydrochloride) [Compound 2a], the melting point is 198 to 201 °C.

Compound `CC(=O)Nc1ccc2c(c1)C(CN1CCN(c3ccccc3Cl)CC1)CC2` (centres unmarked) (as salt: hydrochloride) [Compound 4f, 1-(6-Acetylaminoindan-1-ylmethyl)-4-(2-chlorophenyl)piperazine] returned a melting point of 195 to 203 °C.

For the compound `CC(=O)Nc1ccc2c(c1)C(CN1CC=C(c3ccc(Cl)cc3)CC1)CC2` (centres unmarked) (as salt: oxalate), the melting point fell in the range of 223 to 226 °C.

Turning to `CC(=O)Nc1ccc2c(c1)C(CN1CCC(O)(c3ccc(Cl)c(C(F)(F)F)c3)CC1)CC2` (centres unmarked) (as salt: oxalate), the melting point fell in the range of 163 to 165 °C.

For the compound `CC(=O)Nc1ccc2c(c1)C(CN1CC=C(c3c[nH]c4cc(Cl)ccc34)CC1)CC2` (centres unmarked) (as salt: oxalate) (hydrate or solvate) [Compound 11e, 3-[1-(6-Acetylaminoindan-1-ylmethyl)-1,2,3,6-tetrahydropyridin-4-yl]-6-chloro-1H-indole], the melting point lay within 151 to 164 °C.

As for `COc1ccccc1N1CCN(CC2CCc3ccc(NC(C)=O)cc32)CC1` (centres unmarked) (as salt: oxalate) [Compound 4g, 1-(6-Acetylaminoindan-1-ylmethyl)-4-(2-methoxyphenyl)piperazine], the melting point was in the range of 210 to 213 °C.

The compound `CS(=O)(=O)Nc1ccc2c(c1)C(CN1CC=C(c3ccc(Cl)cc3)CC1)CC2` (centres unmarked) (as salt: oxalate) [Compound 4m, 4-(4-Chlorophenyl)-1-(6-methansulphonylaminoindan-1-ylmethyl)-1,2,3,6-tetrahydropyperidine] yielded a melting point of 176 to 178 °C.

On to `CNC(=O)Nc1ccc2c(c1)C(CN1CCN(c3ccc4c(c3)OCO4)CC1)CC2` (centres unmarked) (as salt: oxalate) [Compound 5d, 1-(6-Methylaminocarbonylaminoindan-1-ylmethyl)-4-(3,4-methylendioxyphenyl)piperazine], for which the melting point lay in the range of 132 to 133 °C.

In the case of `CC(=O)Nc1ccc2c(c1)C(CN1CC=C(c3c[nH]c4ccc(Cl)cc34)CC1)CS2` (centres unmarked) (as salt: oxalate) [Compound 11b, 3-[1-(5-Acetylamino-2,3-dihydrobenzothiophen-3-ylmethyl)-1,2,3,6-tetrahydropyridin-4-yl]-5-chloro-1H-indole], the melting point is 214 to 216 °C.

Consider `CC(=O)Nc1ccc2c(c1)C(CN1CCC(c3c[nH]c4ccc(F)cc34)CC1)CC2` (centres unmarked) (as salt: oxalate) [Compound 11c, 3-[1-(6-Acetylaminoindan-1-ylmethyl)piperidin-4-yl]-5-fluoro-1H-indole], for which the melting point lay in the range of 145 to 149 °C.

In turn, `CC(=O)Nc1ccc2c(c1)C(CN1CC=C(c3c[nH]c4ccc(F)cc34)CC1)CS2` (centres unmarked) (as salt: oxalate) [Compound 11d, 3-[1-(5-Acetylamino-2,3-dihydrobenzothiophen-3-ylmethyl)-1,2,3,6-tetrahydropyridin-4-yl]-5-fluoro-1H-indole] had a melting point of 155 to 165 °C.

`CC(=O)Nc1ccc2c(c1)C(CN1CCC(c3c[nH]c4cc(Cl)ccc34)CC1)CC2` (centres unmarked) (as salt: oxalate) [Compound 11f, 3-[1-(6-Acetylaminoindan-1-ylmethyl)piperidin-4-yl]-6-chloro-1H-indole]: the melting point lay within 122 to 130 °C.

Regarding `CC(=O)Nc1ccc2c(c1)C(CN1CC=C(c3c[nH]c4ccc(Cl)cc34)CC1)CC2` (centres unmarked) (as salt: oxalate) [Compound 11g, 3-[1-(6-Acetylaminoindan-1-ylmethyl)-1,2,3,6-tetrahydropyridin-4-yl]-5-chloro-1H-indole], the melting point is 220 to 223 °C.

`CC(=O)Nc1ccc2c(c1)C(CN1CCC(c3cn(C)c4cc(Cl)ccc34)CC1)CC2` (centres unmarked) (as salt: oxalate) [Compound 15b, 3-[1-(6-Acetylaminoindan-1-ylmethyl)piperidin-4-yl]-6-chloro-1-m ethyl-1H-indole]: the melting point was 202 to 205 °C.

As for `CC(=O)Nc1ccc2c(c1)C(CN1CCC(c3ccc(F)cc3)CC1)CC2` (single isomer, unassigned; (+)) [Compound 14a, (+)-1-(6-Acetylaminoindan-1-ylmethyl)-4-(4-fluorophenyl)piperidine], the IC50 on 5-HT1A receptors worked out at 0.12 µM; on 5-HT2A receptors (setting [1]), 0.016 µM.

Take `Nc1ccc2c(c1)C(CN1CCC(c3ccc(F)cc3)CC1)CC2` (centres unmarked) [Compound 2a]: the IC50 on 5-HT1A receptors worked out at 0.48 µM; on 5-HT2A receptors (setting [1]), 0.0025 µM.

For the compound `Nc1ccc2c(c1)C(CN1CCN(c3ccc(Cl)cc3)CC1)CC2` (centres unmarked) [Compound 2e, 1-(6-Aminoindan-1-ylmethyl)-4-(4-chlorophenyl)piperazine], the melting point lay in the range of 98 to 109 °C.

`CC(=O)Nc1ccc2c(c1)C(CN1CCN(c3ccccc3Cl)CC1)CC2` (centres unmarked) [Compound 4f, 1-(6-Acetylaminoindan-1-ylmethyl)-4-(2-chlorophenyl)piperazine]: the IC50 on 5-HT1A receptors turned out to be 0.084 µM; at 5-HT2A receptors (setting [1]), 0.065 µM.

With `COc1ccccc1N1CCN(CC2CCc3ccc(NC(C)=O)cc32)CC1` (centres unmarked) [Compound 4g, 1-(6-Acetylaminoindan-1-ylmethyl)-4-(2-methoxyphenyl)piperazine], the IC50 at 5-HT1A receptors was 0.031 µM; at 5-HT2A receptors (setting [1]), 0.28 µM.

For the compound `CCOC(=O)Nc1ccc2c(c1)C(CN1CCC(c3ccc(F)cc3)CC1)CC2` (centres unmarked) [Compound 4l, 1-(6-Ethyloxycarbonylaminoindan-1-ylmethyl)-4-(4-fluorophenyl)piperidine], the inhibition at 0.1 µM at 5-HT1A receptors (read-out: 3H 8-OH DPAT (5-HT1A) binding, % inhibition of binding at 100 nM, at 100 nM, rat brain membranes) came out at 26%. At 5-HT2A receptors (setting [1]), the IC50 stood at 0.055 µM.

With `CS(=O)(=O)Nc1ccc2c(c1)C(CN1CC=C(c3ccc(Cl)cc3)CC1)CC2` (centres unmarked) [Compound 4m, 4-(4-Chlorophenyl)-1-(6-methansulphonylaminoindan-1-ylmethyl)-1,2,3,6-tetrahydropyperidine], the IC50 amounted to 0.12 µM at 5-HT1A receptors and 0.0027 µM at 5-HT2A receptors.

As to `CC(=O)Nc1ccc2c(c1)C(CN1CCN(c3ccc4c(c3)OCO4)CC1)CC2` (centres unmarked) [Compound 4q, 1-(6-Acetylaminoindan-1-ylmethyl)-4-(3,4-methylenedioxyphenyl)piperazine], the melting point lay in the range of 188 to 189 °C.

As to `CNC(=O)Nc1ccc2c(c1)C(CN1CCC(c3ccc(F)cc3)CC1)CC2` (centres unmarked) [Compound 5a, 4-(4-Fluorophenyl)-1-(6-methylaminocarbonylaminoindan-1-ylmethyl)piperidine], the results for the IC50 at 5-HT1A receptors and at 5-HT2A receptors (setting [1]) were 0.035 µM and 0.0051 µM, respectively.

For the compound `CNC(=S)Nc1ccc2c(c1)C(CN1CCC(c3ccc(F)cc3)CC1)CC2` (centres unmarked) [Compound 5c, 4-(4-Fluorophenyl)-1-(6-methylaminothiocarbonylaminoindan-1-ylmethyl)piperidine], the IC50 is above 1 µM on 5-HT1A receptors and 0.0039 µM at 5-HT2A receptors (setting [1]).

For the compound `CN(C)C(=O)Nc1ccc2c(c1)C(CN1CCC(c3ccc(F)cc3)CC1)CC2` (centres unmarked) [Compound 6a, 1-(6-Dimethylaminocarbonylaminoindan-1-ylmethyl)-4-(4-fluorophenyl)piperidine], the IC50 on 5-HT1A receptors was determined as 1.2 µM; on 5-HT2A receptors (setting [1]), 0.0091 µM.

`NC(=O)Nc1ccc2c(c1)C(CN1CCC(c3ccc(F)cc3)CC1)CC2` (centres unmarked) [Compound 7a, 1-(6-Aminocarbonylaminoindan-1-ylmethyl)-4-(4-fluorophenyl)piperidine]: the IC50 on 5-HT1A receptors is 0.013 µM; on 5-HT2A receptors (setting [1]), 0.0026 µM.

As to `CC(=O)Nc1ccc2c(c1)C(CN1CCC(c3c[nH]c4ccc(Cl)cc34)CC1)CS2` (centres unmarked) [Compound 11a, 3-[1-(5-Acetylamino-2,3-dihydrobenzothiophen-3-ylmethyl)piperidin-4-yl]-5-chloro-1H-indole], the IC50 at 5-HT1A receptors stood at 0.028 µM; at 5-HT2A receptors (setting [1]), 0.042 µM.

With `CC(=O)Nc1ccc2c(c1)C(CN1CC=C(c3c[nH]c4ccc(Cl)cc34)CC1)CS2` (centres unmarked) [Compound 11b, 3-[1-(5-Acetylamino-2,3-dihydrobenzothiophen-3-ylmethyl)-1,2,3,6-tetrahydropyridin-4-yl]-5-chloro-1H-indole], the IC50 on 5-HT1A receptors turned out to be 0.021 µM; at 5-HT2A receptors (setting [1]), 0.044 µM.
